Usually IC50 stands for the concentration at which inhibition is half-maximal.

Test [1] concerns Plasmodium falciparum. Nature of the test: In vitro inhibitory activity against Plasmodium falciparum D6. It counts as functional, organism-based.
Test [2] concerns CFU-GM. Nature of the test: In vitro toxicity against human bone marrow stem cells(CFU-GM) at a dose of 100.0 uM; activity expressed as average colony count. It counts as functional.
In test [3] the test system is CFU-GM. Nature of the test: In vitro toxicity against human bone marrow stem cells(CFU-GM) at a dose of 10.0 uM; activity expressed as average colony count. In kind it is functional.
Test [4] concerns CFU-GM. Nature of the test: In vitro toxicity against human bone marrow stem cells (CFU-GM) in the absence (control); activity expressed as average colony count. It counts as functional, Bone element.
The test system of test [5] is CFU-GM. Put plainly: In vitro toxicity against human bone marrow stem cells(CFU-GM) at a dose of 5.0 uM; activity expressed as average colony count. In kind it is functional.
Test [6] relates to CFU-GM. Nature of the test: In vitro toxicity against human bone marrow stem cells(CFU-GM) at a dose of 0.1 uM; activity expressed as average colony count. In kind it is functional.
In test [7] the test system is CFU-GM. Nature of the test: In vitro toxicity against human bone marrow stem cells(CFU-GM) at a dose of 1.0 uM; activity expressed as average colony count. It counts as functional.
The test system of test [8] is CFU-GM. Nature of the test: In vitro toxicity against human bone marrow stem cells(CFU-GM) in the absence (control); activity expressed as average colony count. In kind it is functional.

As to `COc1cc2c(cc1OC)C(=O)c1cc(OC)c(OC)cc1C2=O`, the IC50 in test [1] is at least 5 µM.

Turning to `O=C1c2c(O)c(O)c(O)c(O)c2C(=O)c2c(O)c(O)c(O)c(O)c21`, in test [1], the IC50 was determined as 0.8 µM.

In test [1], `COc1cc2c(c(OC)c1OC)C(=O)c1cc(OC)c(OC)c(OC)c1C2=O` showed an IC50 of at least 5 µM.

In the case of `COc1c(OC)c(OC)c2c(c1OC)C(=O)c1c(OC)c(OC)c(OC)c(OC)c1C2=O`, the IC50 in test [1] is at least 5 µM.

For the compound `O=C1c2c(O)c(O)c(O)c(Br)c2C(=O)c2c(O)c(O)c(O)c(Br)c21`, the IC50 in test [1] turned out to be 5 µM.

For `COc1c(Br)c2c(c(OC)c1OC)C(=O)c1c(Br)c(OC)c(OC)c(OC)c1C2=O`, the IC50 in test [1] was at least 5 µM.

As for `O=C1c2cc(O)c(O)cc2C(=O)c2cc(O)c(O)cc21`, the IC50 in test [1] turned out to be 0.3 µM.

`O=C1c2cc(O)c(O)c(O)c2C(=O)c2cc(O)c(O)c(O)c21`: the Average colony count in test [2] was 5; in test [3] it was 36; in test [4], 56; in test [5] it was 47; in test [6] it was 61; in test [7], 57. For the same compound, in test [1], the midpoint of inhibition, the IC50, lay at 0.035 µM.

For the compound `O=C1c2ccc(O)cc2C(=O)c2ccc(O)cc21` [ANTHRAFLAVICACID], the half-maximal inhibitory concentration (IC50) in test [1] is above 1 µM.

Compound `O=C1c2ccccc2C(=O)c2ccccc21` [ANTHRAQUINONE] had an IC50 in test [1] of 5 µM.

Regarding `O=C1c2cccc(O)c2C(=O)c2cccc(O)c21` [ANTHRARUFIN], in test [1], the IC50 is above 1 µM.

For the compound `CCN(CC)CCCC(C)Nc1ccnc2cc(Cl)ccc12` (centres undefined) [CHLOROQUINE], the Average colony count in test [2] amounted to 5; in test [8], 56; in test [3], 48; in test [5], 54; in test [6], 56; in test [7], 54.

In the case of `O=C1c2ccccc2C(=O)c2c(O)c(O)cc(O)c21` [PURPURIN], the IC50 in test [1] was above 1 µM.

The values above are taken from ChEMBL document CHEMBL1128802, “Hydroxy-anthraquinones as antimalarial agents” (Bioorg Med Chem Lett, 1995).
